Measurements: the NIST ThermoML archive (doi:10.1021/acs.jced.9b00001)
Several values for one entry are separate records, joined by “and”; a condition that tells them apart may be missing. Equal values may be shown once.

Conditions: Liquid, Closed cell (Static) method

FC(F)(F)/C=C/Cl [(E)-1-chloro-3,3,3-trifluoroprop-1-ene]
Conditions | vapor or sublimation pressure
253.17 K | 17.85 kPa
257.16 K | 22.05 kPa
260.17 K | 25.84 kPa
263.21 K | 30.13 kPa
267.04 K | 36.26 kPa and 36.26 kPa
270.14 K | 41.85 kPa
273.14 K | 47.91 kPa
277.11 K | 57.02 kPa
280.14 K | 64.83 kPa
283.09 K | 73.21 kPa
287.12 K | 86.04 kPa
290.14 K | 96.6 kPa
290.16 K | 96.73 kPa
293.09 K | 108.04 kPa
293.17 K | 108.4 kPa
297.15 K | 125.37 kPa
297.16 K | 125.42 kPa
300.15 K | 139.48 kPa
303.16 K | 154.83 kPa
307.16 K | 177.3 kPa
310.15 K | 195.73 kPa
313.15 K | 215.48 kPa
317.16 K | 244.36 kPa
320.16 K | 267.95 kPa
323.15 K | 293.08 kPa
323.25 K | 293.99 kPa
323.36 K | 295.01 kPa
327.16 K | 329.62 kPa
330.15 K | 359.02 kPa
333.14 K | 390.34 kPa and 390.35 kPa
333.15 K | 390.53 kPa
337.15 K | 435.75 kPa
340.15 K | 472.19 kPa
343.13 K | 510.48 kPa
343.15 K | 510.8 kPa and 510.94 kPa
343.19 K | 511.2 kPa
347.15 K | 566.08 kPa
350.16 K | 610.55 kPa
353.18 K | 657.68 kPa and 657.72 kPa
353.19 K | 657.8 kPa and 657.95 kPa
357.16 K | 724.03 kPa
360.16 K | 777.18 kPa
363.17 K | 833.48 kPa
363.2 K | 834.12 kPa
363.23 K | 834.57 kPa and 835.18 kPa
367.17 K | 913.02 kPa
370.17 K | 976.1 kPa
373.17 K | 1042.6 kPa and 1043.1 kPa
373.19 K | 1043.2 kPa and 1043.3 kPa
377.15 K | 1136.1 kPa
380.15 K | 1210.4 kPa
383.2 K | 1289.7 kPa
383.21 K | 1289.9 kPa
383.22 K | 1290.5 kPa and 1290.6 kPa
387.16 K | 1398.3 kPa
390.15 K | 1484.8 kPa
393.17 K | 1576.2 kPa
393.2 K | 1577.7 kPa
393.21 K | 1577.4 kPa and 1578 kPa
397.18 K | 1704 kPa
397.22 K | 1705.7 kPa
400.23 K | 1806.9 kPa
400.24 K | 1806.7 kPa
403.14 K | 1908.4 kPa
403.15 K | 1909 kPa
403.22 K | 1911.4 kPa and 1911.9 kPa
403.26 K | 1912.9 kPa
407.13 K | 2055.5 kPa
408.25 K | 2098.3 kPa
410.17 K | 2173.3 kPa
413.1 K | 2291.7 kPa
413.18 K | 2294.5 kPa
413.19 K | 2294.6 kPa and 2295.1 kPa and 2294.9 kPa
417.18 K | 2463.9 kPa
418.23 K | 2510.4 kPa
420.13 K | 2595.8 kPa
423.15 K | 2735.4 kPa and 2736 kPa
423.18 K | 2737.1 kPa
423.19 K | 2737.5 kPa
427.19 K | 2932.7 kPa
430.25 K | 3090.6 kPa
